# “And” between values parts separate entries of the source, which are not always exact repeats. Equal entries are not always repeated.
# Legend:
# [1] = parameters: method as in Huang C. C. et al., 2021; details: parallel artificial membrane permeability assay ref Huang C. C. et al., 2021; cited from earlier work
# [2] = test system: HMC3 cells; experiment: cytotoxicity MTT assay in HMC3 cells; assay type: cell-based, human; details: MPP^+ at 4 mM
# Experimental: (§1) Human HMC3 microglial (CRL-3304) and neuroblastoma BE(2)-M17 (CRL-2267) cells were obtained from American Type Culture Collection. BE(2)-M17 develops a better dopaminergic phenotype than SH-SY5Y when treated with retinoic acid to direct neuronal differentiation (Carvajal-Oliveros et al., [2022]). Cells were routinely maintained in Dulbecco's Modified Eagle Medium-Nutrient Mixture F12 (DMEM-F12) supplemented with 10% fetal bovine serum (FBS; Thermo Fisher Scientific, Waltham, MA, USA) in a 37°C incubator, with 95% relative humidity and 5% CO2 (NuAire, Plymouth, MN, USA).
# (§2) To evaluate cytotoxicity of LM compounds and MPP^+, HMC3 (1 × 10^4) or BE(2)-M17 (2 × 10^4) cells were plated on 96-well dishes, grown for 20 h, and treated with LM compounds (1–100 μM) or MPP^+ [HMC3: 0–8 mM; BE(2)-M17: 0–5 mM]. Next day, 20 μl of tetrazolium dye 3-(4,5-dimethylthiazol-2-yl)-2,5-diphenyltetrazolium bromide (MTT, 5 mg/ml; Sigma-Aldrich) was added to the cells at 37°C for 3 h. The resulted insoluble purple formazan products were dissolved by lysis buffer (composition: 10% Triton X-100, 0.1 N HCl, 18% isopropanol). The absorbance of the dissolved product at optical density (OD) 570 nm was read by using a FLx800 fluorescence microplate spectrophotometer (Bio-Tek, Winooski, VT, USA). The half maximal inhibitory concentration (IC50) of LM compounds was determined through the construction of a dose-response curve. MPP^+ at 4 mM (HMC3 cell viability: 65%−69%) or 0.62 mM [BE(2)-M17 cell viability: 79%−84%] was selected to induce inflammation for further experiments.
# [3] = test system: iNOS; experiment: Western blot iNOS in MPP^+-stimulated HMC3 cells; assay type: cell-based, human; details: HMC3, 4 mM MPP^+ alone; untreated = 100%
# Experimental: (§3) HMC3 (2 × 10^5/6-well) or BE(2)-M17 (4 × 10^5/6-well) cells were lysed in buffer (composition: 50 mM Tris-HCl pH8.0, 2 mM EDTA pH8.0, 150 mM NaCl, 0.5% sodium deoxycholate, 0.1% SDS, 50 mM NaF, 1% NP40) containing the protease and/or phosphatase inhibitor cocktail (Sigma-Aldrich). After sonication, the lysates were centrifuged (12,000 × g for 10 min at 4°C) and protein concentrations determined (Bradford protein assay; Bio-Rad, Hercules, CA, USA). Aliquots of protein (20 μg) were separated by electrophoresis using 10%−12% SDS–polyacrylamide gel followed by transfer to a polyvinylidene fluoride (PVDF) membrane. […] The immune complexes were detected using horseradish peroxidase (HRP)-conjugated goat anti-mouse or goat anti-rabbit IgG antibody (1:5,000; GeneTex) and chemiluminescent HRP substrate (Millipore, Burlington, MA, USA). Immunoreactive bands were captured (ImageQuant™ LAS 4000, GE Healthcare, Chicago, IL, USA) and quantified (Multi Gauge V3.0 software, Fujifilm, Tokyo, Japan).
# [4] = test system: IL-1β; experiment: Western blot IL-1β in MPP^+-stimulated HMC3 cells; assay type: cell-based, human; details: HMC3, 4 mM MPP^+ alone; untreated = 100%
# Experimental: as §3
# [5] = test system: BE(2)-M17 cells; experiment: cytotoxicity MTT assay in BE(2)-M17 cells; assay type: cell-based, human; details: MPP^+ at 0.62 mM
# Experimental: as §1, §2
# [6] = test system: caspase-6; experiment: caspase-6 activity assay in MPP^+-treated BE(2)-M17 cells; assay type: cell-based, human; details: BE(2)-M17, 0.62 mM MPP^+ alone; untreated = 100%
# Experimental: BE(2)-M17 cells were plated onto six-well (4 × 10^5/well) and treated with retinoic acid, LM compounds (10 μM), and MPP^+ as described. Cells were collected on day 7 and lysed by six freeze/thaw cycles. Types of substrates applied were: Ac-Tyr-Val-Ala-Asp-7-amino-4-trifluoromethyl coumarin (YVAD-AFC) for caspase-1, Ac-Val-Glu-Ile-Asp-7-amino-4-trifluoromethyl coumarin (VEID-AFC) for caspase-6 (BioVision, Milpitas, CA, USA), and Ac-Asp-Glu-Val-Asp-7-amido-4-methylcoumarin (DEVD-AMC) for caspase-3 (Sigma-Aldrich). The reaction mixtures were incubated for 1.5 h at 37°C per the manufacturer's instructions. The fluorescence intensity at 400 nm excitation and 505 nm emission (caspase-1 and caspase-6) or 360 nm excitation and 460 nm emission (caspase-3) wavelengths were recorded (BioTek FLx800).
SMILES,bioavailability and BBB penetration potential [1],cell viability [2] [%−69%],iNOS expression [3] [%],IL-1β expression [4] [%],cell viability [5],caspase-6 activity [6] [%]
O=C(/C=C/c1ccccc1O)c1c(O)c2ccccc2oc1=O [LM-036],good bioavailability and BBB penetration potential,–,–,–,–,–
"C[n+]1ccc(-c2ccccc2)cc1 [MPP^+, 1-methyl-4-phenyl pyridinium, reference compound]",–,65,156,326,79%−84% and 80%,116

# From paper PMC11473416, “Coumarin-chalcone derivatives as dual NLRP1 and NLRP3 inflammasome inhibitors targeting oxidative stress and inflammation in neurotoxin-induced HMC3 and BE(2)-M17 cell models of Parkinson's disease” (Frontiers in Aging Neuroscience, 2024)
